Legend:
[1] = test system: normal human liver cells LX2; test: MTT normal cytotoxicity, LX2; type: cell-based; conditions: mean ± SD, n = 3
Protocol: (§1) Cell suspensions were prepared in a logarithmic growth phase and seeded in 96-well plates at a density of 5000–8000 cells/well for 12 h and treated with different concentrations of kzl052 for 48 h. A 5 mg/mL MTT dye solution (Solarbio, Beijing, China) was added to all cells at 37 °C for 4 h. Then DMSO was added after removing the supernatant, and the crystals were completely dissolved by shaking at 37 °C for 15 min. The absorbance was measured at 490 nm by a microplate reader (Gene, HongKong, China). The cell proliferation inhibition rate was calculated according to the following formula: (1-experimental group OD/control group OD) × 100% with DMSO as a negative control and the WRN inhibitor (NSC 617145, GLPBIO, Montclair, CA, USA) as a positive control.

[2] = test system: normal human renal epithelial cells HK2; test: MTT normal cytotoxicity, HK2; type: cell-based; conditions: Epithelial cell, mean ± SD, n = 3
Protocol: as §1

WRN protein [3] = test: Western blot of WRN protein level; type: cell-based; conditions: 24 h
LNCaP cells [4] = test: γ-H2A.X immunofluorescence (DNA damage), LNCaP; type: cell-based, human; conditions: 100 nM, 24 h
Protocol: (§2) Cell slides were prepared and treated with 100nM kzl052 for 24 h. A 4% PFA was added for fixation after PBS washing, and then the cells were treated with Triton X-100 (Sigma-Aldrich, Saint Louis, MO, USA) for 30 min. The cells were blocked with 4% BSA for 2 h and incubated overnight at 4 °C with a γ-H2A.X primary antibody (1:1000, CST, Boston, MA, USA). A fluorescent secondary antibody (1:50; CST) was added and incubated in the dark for 2 h. After washing with PBS, a 10 μg/mL DAPI staining solution was added and treated the cells for 5–10 min. The expression and localization of γ-H2A.X was detected by inverted fluorescence microscopy (Leica, Wetzlar, Germany).

PC3 cells [5] = test: MTT assay, PC3 cell growth; type: cell-based; conditions: Homo sapiens, PC-3, 24 h (Figure 1 legend), 48 h (method)
Protocol: as §1

BALB/c mice = test: Acute toxicity assay in BALB/c mice; type: in vivo; conditions: 24 h; for Death Number / Survival Number: 4 mice
Protocol: (§3) The toxicity of kzl052 in vivo was tested by an acute toxicity analysis in male BALB/c mice. A total of 20 mice were divided into 5 groups randomly. Each group was given a one-time treatment of kzl052 concentrations at 0 mg/kg, 50 mg/kg, 100 mg/kg, 200 mg/kg, and 500 mg/kg. The survival or death status of mice within 24 h was observed and recorded. The survival and death rate of mice were calculated.

[6] = Acute toxicity assay in BALB/c mice; type: in vivo; conditions: mouse, in vivo; within 24 h, male BALB/c mice, one-time treatment
Protocol: as §3

LNCaP cells [7] = test: Bright field and Hoechst staining, LNCaP; type: cell-based, human; conditions: 24 h
Protocol: (§4) PC3 and LNCaP cells were cultured and treated with different concentrations of kzl052 for 24 h and then 5 μg/mL of a Hoechst 33258 dye solution (Solarbio, Beijing, China) was added for 5–10 min after PBS washing. The fluorescence microscope (Leica, Wetzlar, Germany) was used for photo observation.

WRN protein [8] = target: T1, WRN protein (Homo sapiens, UniProt Q14191); test: Cellular thermal shift assay (CETSA); type: binding; conditions: PC3 cells, 100 nM, 2 h
T1 construct: endogenous in cells; host or cells: PC3
T1 sequence (Q14191 whole entry): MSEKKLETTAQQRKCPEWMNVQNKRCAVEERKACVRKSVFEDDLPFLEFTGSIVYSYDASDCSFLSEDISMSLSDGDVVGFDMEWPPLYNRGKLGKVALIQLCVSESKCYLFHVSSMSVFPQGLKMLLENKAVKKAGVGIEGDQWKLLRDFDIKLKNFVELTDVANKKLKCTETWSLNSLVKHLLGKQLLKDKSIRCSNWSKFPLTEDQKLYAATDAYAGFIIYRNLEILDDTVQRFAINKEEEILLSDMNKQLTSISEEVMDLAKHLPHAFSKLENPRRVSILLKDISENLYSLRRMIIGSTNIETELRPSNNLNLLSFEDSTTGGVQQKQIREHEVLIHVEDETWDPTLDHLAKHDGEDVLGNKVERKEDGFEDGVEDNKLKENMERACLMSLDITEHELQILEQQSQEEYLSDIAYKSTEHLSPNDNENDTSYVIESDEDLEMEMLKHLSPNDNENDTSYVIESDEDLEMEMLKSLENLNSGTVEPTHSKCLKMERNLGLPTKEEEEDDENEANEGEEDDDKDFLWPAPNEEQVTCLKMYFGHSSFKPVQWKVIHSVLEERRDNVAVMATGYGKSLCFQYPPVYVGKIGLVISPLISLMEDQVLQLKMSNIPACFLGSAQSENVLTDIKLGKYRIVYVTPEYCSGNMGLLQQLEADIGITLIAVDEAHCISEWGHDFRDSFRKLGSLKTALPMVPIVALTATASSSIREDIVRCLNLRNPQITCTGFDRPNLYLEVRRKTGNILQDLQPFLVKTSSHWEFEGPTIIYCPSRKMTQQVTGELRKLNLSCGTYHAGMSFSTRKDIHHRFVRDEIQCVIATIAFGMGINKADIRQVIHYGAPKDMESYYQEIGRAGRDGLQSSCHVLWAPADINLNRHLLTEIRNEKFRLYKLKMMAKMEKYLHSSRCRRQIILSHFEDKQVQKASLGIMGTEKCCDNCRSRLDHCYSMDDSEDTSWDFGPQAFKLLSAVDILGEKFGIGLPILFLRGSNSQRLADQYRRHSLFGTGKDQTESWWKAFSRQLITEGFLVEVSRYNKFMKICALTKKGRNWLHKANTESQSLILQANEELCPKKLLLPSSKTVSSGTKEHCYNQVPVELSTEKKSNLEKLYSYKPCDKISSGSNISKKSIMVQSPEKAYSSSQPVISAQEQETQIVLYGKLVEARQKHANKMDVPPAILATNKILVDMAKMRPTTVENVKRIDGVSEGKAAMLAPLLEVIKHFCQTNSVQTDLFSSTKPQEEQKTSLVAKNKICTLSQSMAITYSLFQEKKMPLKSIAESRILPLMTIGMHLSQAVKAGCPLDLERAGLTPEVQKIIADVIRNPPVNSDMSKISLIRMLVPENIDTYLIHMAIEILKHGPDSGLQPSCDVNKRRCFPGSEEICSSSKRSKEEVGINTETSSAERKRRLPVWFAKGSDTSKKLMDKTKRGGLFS
Protocol: PC3 cells were cultured and treated with 100 nM kzl052 for 2 h. The cells were collected into 1.5 mL EP tubes, treated with a metal bath at different temperatures (43 °C, 46 °C, 49 °C, 52 °C, and 55 °C) for 3 min, and balanced for 2 min at room temperature. The supernatant was collected by centrifugation after three cycles of liquid nitrogen in a 37 °C water bath, and then a SDS-loading buffer and denatured protein was added at 100 °C for 10 min. Finally, the content of the binding of the WRN protein was detected by Western blot.

WRN-silenced PC3 cells = test: MTT assay in WRN-silenced PC3 cells; type: cell-based, human; conditions: shWRN lentiviral transfection
Protocol: Human prostate cancer cell lines PC3 and LNCaP cells were stored in the Biology Laboratory of the Natural Products Research Center of Guizhou Province (Guiyang, China). Cells were cultured in DMEM supplemented with 10% fetal bovine serum (BI, Nahariya, Israel) and 1% penicillin and streptomycin (Solarbio, Beijing, China) and incubated at 37 °C under 5% CO2, 95% air, and 95% humidity. The pLV-shWRN-GFP-Puro and blank control plasmids were constructed by Chongqing UNIBIO Biotechnology Co., Ltd. (Chongqing, China). The transfection steps were based on previous published studies. The inhibitory effect of the WRN protein in PC3 cells was detected by a Western blot assay.
as §1, with “The cell proliferation inhibition rate was calculated according to the following formula: (1-experimental group OD/control group OD) × 100% with DMSO as a negative control and the WRN inhibitor (NSC 617145, GLPBIO, Montclair, CA, USA) as a positive control.” left out

WRN helicase = target: T2, WRN helicase (Homo sapiens, UniProt Q14191); test: WRN-unwinding assay (WRN enzyme activity test); type: biochemical; conditions: Figure S2
T2 construct: ICE Bioscience Inc (Beijing, China)
T2 sequence (Q14191 whole entry): as above
Protocol: NSC617145 in WRN FI as s ay KZL -05 2 in WR N FI as s ay
Figure S2.The results of WRN-unwinding assay. WRN enzyme activity test were
performed by ICE Bioscience Inc (Beijing, China).

PC3 cells [9] = test: γ-H2A.X immunofluorescence (DNA damage), PC3; type: cell-based, human; conditions: 100 nM, 24 h
Protocol: as §2

[10] = test system: PARP1, Bax, PLK1, RB1, Bcl-2, SRC, PTEN, PCNA, RPA, FEN1, Mre11; test: Western blot of apoptosis, RB signal and replication fork proteins; type: cell-based
Protocol: The cells treated by kzl052 were collected, washed by precooled PBS, and removed by centrifugation at 1000 g/5 min. A RIPA lysate (Solarbio, Beijing, China) was added for 30 min on ice. The protein concentration was determined by a BCA kit (Solarbio, Beijing, China) and denatured at 105 °C. The target proteins were isolated by SDS-PAGE gel electrophoresis and transferred to the PVDF membrane (Millipore, Bedford, MA, USA). A 5% BSA was added to block for 2 h. Primary antibodies (PNCA, RPA, FEN1, Mre11, PARP1, Bax, Bcl-2, PLK1, RB1, SRC, and PTEN; 1:1000 dilution, HUBIO, Hangzhou, China) were added and incubated at 4 °C overnight. The next day, the PVDF membrane with target proteins were washed by TBST and incubated with an HRP-labeled IgG secondary antibody (1:100,000 dilution, HUBIO, Hangzhou, China) for 2 h. After TBST washed, the target proteins were isolated and analyzed by a chemiluminescence instrument (BioRad, Hercules, CA, USA).

PC3 cells [11] = test: PC3 xenograft in BALB/c-null mice; type: in vivo; conditions: 5 mg/kg intraperitoneally
Protocol: Male BALB/c-null mice (4 weeks and 18–20 g) were purchased from SiPeiFu Biotechnology Co., Ltd. (Beijing, China). All SPF-grade mice were fed in the animal room with an IVC system barrier environment (Natural Products Research Center of Guizhou Province). The ambient temperature was maintained at 22 ± 2 °C, the humidity was 40–60%, and the light–dark cycle was maintained for 12 h to simulate the normal external environment. The mice took food and water autonomously. Xenografts were performed by subcutaneously implanting PC3 cells (1 × 10^7/0.1 mL). When the tumor size was 100 mm^3, the mice were randomly divided into 2 groups (N = 8). One group was intraperitoneally injected with kzl052 (5 mg/kg), and the other group was given the same dose of the solvent. The body weight and tumor volume was recorded every two days. The tumor volume (mm^3) = 0.5 × long diameter × short diameter^2. At the end of the experiment, the mice were euthanized and dissected to measure the weight of tumor tissue, heart, liver, spleen, kidney, and lung.
The tumor tissue sections were placed sequentially in xylene I/10 min; xylene II/10 min; absolute ethanol I/5 min; absolute ethanol II/5 min; 95% ethanol/5 min; 90% ethanol/5 min; 80% ethanol/5 min; and 70% ethanol/5 min. Then the sections were treated in a hematoxylin staining solution (Solarbio, Beijing, China) for 3–5 min. The slices were treated by 1% hydrochloric acid alcohol for 5–10 s. The sections were treated in an eosin staining solution (Solarbio, Beijing, China) for 1–3 min. Next, the slices were dehydrated with 95% ethanol/5 min; anhydrous ethanol I/5 min; anhydrous ethanol/5 min; xylene I/5 min; and xylene II/5 min. Finally, the sections were sealed with a neutral gum (Solarbio, Beijing, China). The H&E staining results were photographed and analyzed under light microscopes (Leica, Wetzlar, Germany).
The tissue sections were roasted, dewaxed, hydrated, antigen repaired, blocked, and incubated with a polyclonal antibody (PNCA, RPA, Mre11, PARP1, and RB1 at a 1:50 dilution, HUBIO, and γ-H2A.X at a 1:50 dilution, CST) at 4 °C overnight. The HRP-labeled IgG secondary antibody (1:1000 dilution, HUBIO, Hangzhou, China) was incubated at 37 °C for 2 h, stained with DAB, and then stained with hematoxylin (Solarbio, Beijing, China) and sealed with a neutral rubber (Solarbio, Beijing, China). It was also observed and photographed under a microscope (Leica, Wetzlar, Germany). The immunohistochemical results were statistically analyzed using image Pro plus (V6.0) software.

PC3 cells [12] = test: Bright field and Hoechst staining, PC3; type: cell-based, human; conditions: 24 h
Protocol: as §4

LNCaP cells [13] = test: MTT assay, LNCaP cell growth; type: cell-based; conditions: Homo sapiens, 24 h (Figure 1 legend), 48 h (method)
Protocol: as §1

## CC(=O)O[C@@]12CO[C@@H]1C[C@H](O)[C@@]1(C)C(=O)[C@H](O)C3=C(C)[C@@H](OC(=O)[C@H](O)[C@@H](NC(=O)OC(C)(C)C)c4ccccc4)C[C@@](O)([C@@H](OC(=O)c4ccccc4)[C@H]21)C3(C)C [Docetaxel, reference compound]
[1]
  IC50: 410 ± 110 nM
[2]
  IC50: 110 ± 10 nM

## Cc1ccc2nc(C(F)(F)F)nc(N(C)c3ccc(OC(F)F)cc3)c2c1 [kzl052]
WRN protein [3]
  WRN protein expression: significantly inhibited
LNCaP cells [4]
  γ-H2A.X staining, LNCaP: significantly increased
PC3 cells [5]
  IC50: 390 ± 10 nM
BALB/c mice; 50 mg/kg
  Mortality Rate: 0%
  Survival Rate: 100%
  Death Number: 0
  Survival Number: 4
BALB/c mice; 100 mg/kg
  Mortality Rate: 0%
  Survival Rate: 100%
  Death Number: 0
  Survival Number: 4
BALB/c mice; 200 mg/kg
  Mortality Rate: 0%
  Survival Rate: 100%
  Death Number: 0
  Survival Number: 4
BALB/c mice; 500 mg/kg
  Mortality Rate: 75%
  Survival Rate: 25%
  Death Number: 3
  Survival Number: 1
[6]
  LD50 at 24 h: 200 to 500 mg/kg
[1]
  IC50: 3120 ± 90 nM
LNCaP cells [7]
  cell death, LNCaP: promoted PC3 and LNCaP cell death
WRN protein [8]
  binding to WRN protein (CETSA): bound to the WRN protein
WRN-silenced PC3 cells
  sensitivity of WRN-silenced PC3 cells: more insensitive
WRN helicase
  effect on activity of WRN helicase: did not affect the activity of WRN helicase
PC3 cells [9]
  γ-H2A.X staining, PC3: significantly increased
[10]
  expression of PARP1, Bax, PLK1, and RB1: significantly up-regulated
  expression of PCNA, RPA, and FEN1: significantly inhibited
  protein level of Mre11: up-regulated
  protein levels of Bcl-2, SRC, and PTEN: inhibited
PC3 cells [11]
  H&E staining compared with the control group: no significant difference
  effects on mouse body weight and internal organ morphology: minimal effects
PC3 cells [11]; PC3 xenograft
  growth of PC3 cells in vivo (tumor volume, tumor quality): significantly inhibited
PC3 cells [11]; γ-H2A.X, PARP1, RB1, PCNA, RPA, Mre11
  DNA replication fork complexes in tumor tissues (immunohistochemistry): promoted the instability of DNA replication fork complexes
PC3 cells [12]
  cell death, PC3: promoted PC3 and LNCaP cell death
LNCaP cells [13]
  IC50: 110 ± 10 nM
[2]
  IC50: 920 ± 240 nM

## CC(C)(CN1C(=O)C(Cl)=C(Cl)C1=O)CN1C(=O)C(Cl)=C(Cl)C1=O [NSC 617145]
[1]
  IC50: 1810 ± 270 nM
